This is an account of results in PubChem BioAssay AID1996.

The structures appear in SMILES notation. ≈ marks a conversion by molar mass, not a printed value.

For the series the following is noted: buffer; pH 7.4; 200.0 µM.
`Cc1ccc(OCC(=O)OCC(=O)NC2CCCC2)cc1C` showed a solubility (kinetic) of 20 µg/mL (≈ 65.5 µM). To `N#CCSc1ncnc2ccccc12` belongs 28.1 µg/mL (≈ 140 µM). To `COc1ccccc1C(=O)NCCSCc1ccccc1Cl` belongs 15.1 µg/mL (≈ 45 µM); to `O=C(O)c1ccccc1-c1ccccc1C(=O)Nc1ccc2c(c1)CCC2`, over 53.6 µg/mL; to `CN(C)C(=O)c1c2c(nc3ccccc13)CCCC2`, 32.2 µg/mL (≈ 127 µM). As for `CCOC(=O)C1CCN(c2nc(C)cc(C)c2C#N)CC1`, the figure is 36.9 µg/mL (≈ 128 µM); as for `O=C(Nc1nc2ccsc2c(=O)s1)c1ccco1`, 7.3 µg/mL (≈ 26.2 µM); as for `CCC(Oc1ccccc1C)C(=O)N1CCCN(C)CC1` (configuration not stated), over 43.6 µg/mL. With `CN(C)CCCNC(=O)c1cc(Br)ccc1O`, the solubility (kinetic) was found to be 45.2 µg/mL (≈ 150 µM). To `O=C(Nc1ccncc1)c1ccccc1Cl` belongs over 34.9 µg/mL; to `Cc1cccc(C)c1NC(=O)CN1CCCC1`, 31.3 µg/mL (≈ 135 µM); to `O=C(c1ccc(-n2cccn2)cc1)N1CCc2ccccc2C1`, over 45.5 µg/mL. As for `CCN1CCc2nc(N)sc2C1`, the figure is 25.8 µg/mL (≈ 141 µM). As for `Cc1nc2ccccn2c1C(=O)NC1CCCC1`, the figure is over 36.5 µg/mL; as for `O=C(COc1ccccc1F)NCc1ccc(-n2cccc2)cc1`, 1.1 µg/mL (≈ 3.39 µM). Molecule `CN(C(=O)COc1ccc(Cl)cc1)C1(C)CCS(=O)(=O)C1` (configuration not stated) showed a solubility (kinetic) of over 49.8 µg/mL. As for `O=C1c2ccccc2NC(c2cccc(O)c2)N1O` (configuration not stated), the figure is over 38.4 µg/mL; as for `O=C(COC(=O)/C=C/c1cccc(F)c1)NC(=O)NC1CCCC1`, 4.9 µg/mL (≈ 14.7 µM). For `CCOC(=O)C1=C(C)NC2=C(C(=O)OC2)C1c1ccccc1` (configuration not stated), the solubility (kinetic) was over 44.9 µg/mL. To `O=C(O)c1ccc2c(c1)C(=O)N(c1cccc3ccccc13)C2=O` belongs over 47.6 µg/mL; to `CC(OC(=O)c1cnc2ccccc2n1)c1ccccc1Cl` (configuration not stated), 14.8 µg/mL (≈ 47.3 µM); to `O=C(c1ccccc1O)N1CCOCC1`, 30.5 µg/mL (≈ 147 µM). To `Fc1ccc(NC(=S)N2CCc3ccccc32)cc1` belongs 3.1 µg/mL (≈ 11.4 µM); to `CN(Cc1ccccc1)C(=O)c1cccnc1`, over 33.9 µg/mL.

`CC(C)(CN=C1NS(=O)(=O)c2ccccc21)CNC(=O)c1ccccc1` showed a kinetic solubility of over 55.7 µg/mL. As for `CC1(C)CC2(CCO1)C(Nc1ccccc1)=NC(=S)N2CC(N)=O` (configuration not stated), the figure is over 52 µg/mL; as for `C=C[C@]1(C)C[C@@H](OC(=O)CSCCN(CC)CC)[C@]2(C)C(C)CC[C@]3(CCC(=O)[C@H]32)[C@@H](C)[C@@H]1O` (some centres not stated), 64.9 µg/mL (≈ 131 µM); as for `CC(=O)c1cccc(NC(=O)COC(=O)CCNS(=O)(=O)c2ccccc2)c1`, over 60.7 µg/mL. As for `CC(=O)N1CCN(CC(C)(C)NS(=O)(=O)c2ccccc2)CC1`, the figure is over 50.9 µg/mL; as for `COc1ccc(CNC(=O)CN(C)S(=O)(=O)c2ccccc2)cc1`, over 52.3 µg/mL. To `O=C(Nc1ccc(F)cc1)c1ccccc1NC(=O)C1CC=CCC1C(=O)O` (configuration not stated) belongs over 57.4 µg/mL; to `Cc1ccc(C(=O)OCC(=O)NC(=O)c2cccn2C)cc1[N+](=O)[O-]`, 1.3 µg/mL (≈ 3.76 µM); to `CCCCOCCCNC(=O)N[C@H](C(=O)O)C(C)CC` (some centres not stated), over 43.3 µg/mL.

Consider `CCC(=Nc1ccccc1N)c1c(O)[nH]c(=O)[nH]c1=O`, for which the kinetic solubility was determined as 5.6 µg/mL (≈ 20.4 µM). To `Clc1cccc(CN2CCN(c3ncccn3)CC2)c1Cl` belongs 11.1 µg/mL (≈ 34.3 µM); to `COc1ccc(OC(=O)/C=C/c2ccc([N+](=O)[O-])cc2)cc1`, under 0.6 µg/mL; to `CCS(=O)(=O)N1CCC(C(=O)Nc2ccc(C(C)=O)cc2)CC1`, over 50.8 µg/mL. As for `COc1ccc(S(=O)(=O)NCCNC(=O)N2CCOCC2)cc1`, the figure is over 51.5 µg/mL; as for `Cc1cccnc1NC(=O)C1COc2ccccc2O1` (configuration not stated), 40.1 µg/mL (≈ 148 µM); as for `CCCc1ccc(OCc2ccc(C(=O)N3CCCC3)o2)cc1`, 5.9 µg/mL (≈ 18.8 µM). Consider `CN(c1cccc2cccnc12)S(=O)(=O)c1ccccc1`, for which the solubility (kinetic) is 40.7 µg/mL (≈ 136 µM).

As to `CCC1(c2ccc(F)cc2)NC(=O)N(CC(=O)NC2CCCCCC2)C1=O` (configuration not stated), the solubility (kinetic) was 10.4 µg/mL (≈ 27.7 µM). To `S=C(Nc1ccccc1)Nc1ccc(Br)cc1` belongs 5.6 µg/mL (≈ 18.2 µM); to `CSCCC(NC(=O)c1ccco1)c1nc2ccccc2[nH]1` (configuration not stated), over 47.3 µg/mL; to `NC(=O)c1cccc2ccccc12`, over 25.7 µg/mL. To `O=C1NC(=Nc2ccc(F)cc2)CS1` belongs over 31.5 µg/mL. As for `Cc1nn(C)c(NC(=O)c2ccccc2Cl)c1Br`, the figure is over 49.3 µg/mL; as for `CN(C(=O)COC(=O)c1ccc(Cl)c(S(=O)(=O)N2CCCCCC2)c1)C1CCS(=O)(=O)C1` (configuration not stated), over 76.1 µg/mL; as for `CC(=O)c1c(C)oc2ccc(NS(=O)(=O)c3ccc(C)cc3)cc12`, under 0.7 µg/mL. Molecule `Cc1ccc(S(=O)(=O)N2CCN(C(=O)CC(C)C)CC2)cc1` came in with a solubility (kinetic) of over 48.7 µg/mL.

`O=c1cc(-c2ccccc2)c2cc3c(cc2[nH]1)OCCO3` displayed a kinetic solubility of 1.4 µg/mL (≈ 5.01 µM).

`O=C1C(Cl)=C(NCc2cccnc2)C(=O)c2ccccc21` came in with a kinetic solubility of 6.9 µg/mL (≈ 23.1 µM).

One may read the kinetic solubility as the concentration staying in solution when a stock, usually in DMSO, is diluted into the medium.
